In ChEMBL document CHEMBL5532682, “Recent advances of tryptanthrin and its derivatives as potential anticancer agents” (RSC Med Chem, 2024):
pIC50: −log10 of the molar value.

What was measured:
A549 [1] = assay: Antiproliferative activity against human A549 cells incubated by 48 hrs by MTT assay; type: functional, cell-based; conditions: A549, 48 h
PC-3 = assay: Antiproliferative activity against human PC-3 cells incubated by 48 hrs by MTT assay; type: functional, cell-based; conditions: PC-3, 48 h
K562 [2] = assay: Antiproliferative activity against human K562 cells incubated by 48 hrs by MTT assay; type: functional, cell-based; conditions: K562, 48 h
HepG2 [3] = assay: Antiproliferative activity against human HepG2 cells incubated by 48 hrs by MTT assay; type: functional, cell-based; conditions: HepG2, 48 h
Hep 3B2 [4] = assay: Antiproliferative activity against human Hep3B cells measured after 48 hrs by MTT assay; type: functional, cell-based
MCF7 = assay: Antiproliferative activity against human MCF7 cells assessed as inhibition of cell growth; type: functional, cell-based
HeLa [5] = assay: Antiproliferative activity against human HeLa cells assessed as inhibition of cell growth; type: functional, cell-based
A549 [6] = assay: Antiproliferative activity against human A549 cells assessed as inhibition of cell growth; type: functional, cell-based
[7] = Cytotoxicity against human HEK293 cells assessed as inhibition of cell growth; type: toxicity, cell-based
HT-29 = assay: Antiproliferative activity against human HT-29 cells; type: functional, cell-based
MDA-MB-231 = assay: Antiproliferative activity against human MDA-MB-231 cells; type: functional, cell-based
[8] = Cytotoxicity activity against human HDF cells; type: toxicity, cell-based; conditions: HDF cells (NHDF)
PANC-1 = assay: Antiproliferative activity against human PANC-1 cells; type: functional, cell-based
HeLa [9] = assay: Antiproliferative activity against human HeLa cells incubated for 48 hrs; type: functional, cell-based
CT26 = assay: Antiproliferative activity against mouse CT26 cells incubated for 48 hrs; type: functional, cell-based; conditions: CT26, 48 h
K562 [10] = assay: Antiproliferative activity against human K562 cells incubated for 48 hrs; type: functional, cell-based; conditions: K562, 48 h
DU-145 = assay: Growth inhibition of human DU-145 cells assessed as reduction in cell viability; type: functional
U-251 = assay: Growth inhibition of human U-251 cells assessed as reduction in cell viability; type: functional
SW-620 = assay: Growth inhibition of human SW620 cells assessed as reduction in cell viability; type: functional
NCI/ADR-RES = assay: Growth inhibition of human MCF7ADR cells assessed as reduction in cell viability; type: functional
NCI-H522 = assay: Growth inhibition of human NCI-H522 cells assessed as reduction in cell viability; type: functional
A498 = assay: Growth inhibition of human A498 cells assessed as reduction in cell viability; type: functional
M14 = assay: Growth inhibition of human M14 cells assessed as reduction in cell viability; type: functional
SK-OV-3 [11] = assay: Growth inhibition of human SK-OV-3 cells assessed as reduction in cell viability; type: functional
T-24 [12] = assay: Antiproliferative activity against human T24 cells assessed as inhibition of cell growth; type: functional, cell-based
HepG2 [13] = assay: Antiproliferative activity against human HepG2 cells measured after 48 hrs by MTT assay; type: functional, cell-based; conditions: HepG2, 48 h
[14] = Antiproliferative activity against human HL7702 cells assessed as inhibition of cell growth; type: toxicity, cell-based; conditions: HL7702 (L02) cells
T-24 [15] = assay: Antiproliferative activity against human T24 cells measured after 48 hrs by MTT assay; type: functional, cell-based; conditions: T-24, 48 h
SK-OV-3 [16] = assay: Antiproliferative activity against human SK-OV-3 cells assessed as inhibition of cell growth; type: functional, cell-based
MOLT-4 = assay: Anticancer activity against human MOLT-4 cells measured after 48 hrs; type: functional, cell-based; conditions: MOLT-4, 48 h
HeLa [17] = assay: Antiproliferative activity against human HeLa cells assessed as cell growth inhibition; type: functional, cell-based
HepG2 [18] = assay: Antiproliferative activity against human HepG2 cells assessed as inhibition of cell growth; type: functional, cell-based
MGC-803 = assay: Antiproliferative activity against human MGC-803 cells measured after 48 hrs by MTT assay; type: functional, cell-based; conditions: MGC-803, 48 h
Bel-7402 = assay: Antiproliferative activity against human Bel-7402 cells measured after 48 hrs by MTT assay; type: functional, cell-based; conditions: Bel-7402, 48 h
[19] = Antiproliferative activity against human HL7702 cells measured after 48 hrs by MTT assay; type: toxicity, cell-based; conditions: HL7702 (L02) cells
HL-60 = assay: Anticancer activity against human HL-60 cells measured after 48 hrs; type: functional, cell-based; conditions: HL-60, 48 h
A549 [20] = assay: Antiproliferative activity against human A549 cells assessed as cell growth inhibition; type: functional, cell-based
K562 [21] = assay: Anticancer activity against human K562 cells measured after 48 hrs; type: functional, cell-based; conditions: K562, 48 h
Hep 3B2 [22] = assay: Anticancer activity against human Hep3B cells measured after 48 hrs; type: functional, cell-based
[23] = Antiproliferative activity against human HL7702 cells assessed as inhibition of cell viability; type: toxicity, cell-based; conditions: HL7702 (L02) cells
A549/CDDP = assay: Antiproliferative activity against human A549/DDP cells assessed as inhibition of cell viability; type: functional, cell-based
A549 [24] = assay: Antiproliferative activity against human A549 cells assessed as inhibition of cell viability; type: functional, cell-based

With O=C1c2cccc(F)c2-n2c1nc1ccccc1c2=O the pIC50 (A549 [1]) was 5.19, the pIC50 (PC-3) was 5.15 and the pIC50 (K562 [2]) was 5.43. The pIC50 (HepG2 [3]) was 5.23.
In the case of CN(C)c1ccc2c(c1)C(=O)c1nc3ccccc3c(=O)n1-2, the pIC50 (Hep 3B2 [4]) was 5.05.
O=C1C2C=CC=CC2=NC2/C(=N\Nc3nc(-c4ccc(Cl)cc4)cs3)c3ccccc3N12 (stereo unspecified) gave a pIC50 (MCF7) of 4.74, a pIC50 (HeLa [5]) of 4.66 and a pIC50 (A549 [6]) of 4.96. For the same molecule, the pIC50 [7] was 4.09.
With Cc1n[nH]c2c1[C@@]1(C(C#N)=CO2)c2cc(-c3cccc(Cl)c3)ccc2-n2c1nc1ccccc1c2=O the pIC50 (HT-29) was 4.01, the pIC50 (MDA-MB-231) was 4.28 and the pIC50 [8] was under 4.00. It also gave a pIC50 (PANC-1) of under 4.00.
Work on O=C(O)CNC(=O)[C@H]1N[C@@]2(c3ccccc3-n3c2nc2ccccc2c3=O)[C@@]2(c3ccccc3)[C@H](c3ccccc3)[C@@]12c1ccccc1 yielded a pIC50 (HeLa [9]) of 4.48, a pIC50 (CT26) of 5.00 and a pIC50 (K562 [10]) of under 4.30.
Nc1ccc2c(c1)C(=O)c1nc3ccccc3c(=O)n1-2 showed a GI50 (DU-145) of 8 µM, a pIC50 (Hep 3B2 [4]) of 5.24 and a GI50 (U-251) of 4500 nM. For the same molecule, the GI50 (SW-620) was 25 µM, the GI50 (NCI/ADR-RES) was 1000 nM and the GI50 (NCI-H522) was 48 µM. The GI50 (A498) was 2000 nM, the GI50 (M14) was 15 µM and the GI50 (SK-OV-3 [11]) was 25 µM.
O=C1c2cc(Br)ccc2-n2c1nc1ccccc1c2=O showed a GI50 (DU-145) of 2 µM, a pIC50 (T-24 [12]) of 4.03 and a pIC50 (HepG2 [13]) of 4.00. For the same molecule, the pIC50 [14] was 4.30, the pIC50 (T-24 [15]) was 4.82 and the pIC50 (Hep 3B2 [4]) was 5.70. The GI50 (U-251) was 700 nM, the pIC50 (SK-OV-3 [16]) was 4.05 and the GI50 (SW-620) was 4.8 µM. It also gave a pIC50 (MOLT-4) of 5.10, a GI50 (NCI/ADR-RES) of 5000 nM and a pIC50 (HeLa [17]) of under 3.82. The pIC50 (HepG2 [18]) was 4.05, the pIC50 (MGC-803) was 4.23 and the pIC50 (Bel-7402) was 4.57. The GI50 (NCI-H522) was 5 µM, the IC50 at 48 h [19] was 50.1 µM and the GI50 (M14) was 5 µM. The pIC50 (HL-60) was 5.70, the pIC50 (A549 [20]) was 4.05 and the pIC50 (K562 [21]) was 5.30.
Work on O=C1c2ccccc2-n2c1nc1ccc(Br)cc1c2=O yielded a pIC50 (Hep 3B2 [22]) of 5.05.
COc1cc(/C=C/C(=O)CC(=O)/C=C/c2ccc(O)c(OC)c2)ccc1O [CURCUMIN] showed a pIC50 [23] of under 4.00, a pIC50 (A549/CDDP) of 4.17 and a pIC50 (A549 [24]) of 4.45.
Molecule COc1cccc2c1C(=O)c1c(O)c3c(c(O)c1C2=O)C[C@@](O)(C(=O)CO)C[C@@H]3O[C@H]1C[C@H](N)[C@H](O)[C@H](C)O1 [DOXORUBICIN] has a pIC50 (Hep 3B2 [22]) of 6.59.
